Results as given in patent publication US8404713B2, “Quinolinone derivatives as PARP inhibitors” (Janssen Pharmaceutica NV, priority 2007, dated 2013).
Where a name gives a salt, the structure may show the parent alone.

What was measured:
Human PARP-1 enzyme = biological target: T1, Human PARP-1 enzyme (Homo sapiens, UniProt P09874); experiment: In vitro scintillation proximity assay (SPA) for PARP-1 inhibitory activity; assay type: biochemical; settings: nicked DNA activated PARP-1, [3H]-NAD+, biotinylated histones; tested between 10^-5 M and 3x10^-9 M; read-out: in vitro SPA assay PARP-1 pIC50 (converted)
T1 construct: purchased Trevigen
T1 sequence (P09874 whole entry): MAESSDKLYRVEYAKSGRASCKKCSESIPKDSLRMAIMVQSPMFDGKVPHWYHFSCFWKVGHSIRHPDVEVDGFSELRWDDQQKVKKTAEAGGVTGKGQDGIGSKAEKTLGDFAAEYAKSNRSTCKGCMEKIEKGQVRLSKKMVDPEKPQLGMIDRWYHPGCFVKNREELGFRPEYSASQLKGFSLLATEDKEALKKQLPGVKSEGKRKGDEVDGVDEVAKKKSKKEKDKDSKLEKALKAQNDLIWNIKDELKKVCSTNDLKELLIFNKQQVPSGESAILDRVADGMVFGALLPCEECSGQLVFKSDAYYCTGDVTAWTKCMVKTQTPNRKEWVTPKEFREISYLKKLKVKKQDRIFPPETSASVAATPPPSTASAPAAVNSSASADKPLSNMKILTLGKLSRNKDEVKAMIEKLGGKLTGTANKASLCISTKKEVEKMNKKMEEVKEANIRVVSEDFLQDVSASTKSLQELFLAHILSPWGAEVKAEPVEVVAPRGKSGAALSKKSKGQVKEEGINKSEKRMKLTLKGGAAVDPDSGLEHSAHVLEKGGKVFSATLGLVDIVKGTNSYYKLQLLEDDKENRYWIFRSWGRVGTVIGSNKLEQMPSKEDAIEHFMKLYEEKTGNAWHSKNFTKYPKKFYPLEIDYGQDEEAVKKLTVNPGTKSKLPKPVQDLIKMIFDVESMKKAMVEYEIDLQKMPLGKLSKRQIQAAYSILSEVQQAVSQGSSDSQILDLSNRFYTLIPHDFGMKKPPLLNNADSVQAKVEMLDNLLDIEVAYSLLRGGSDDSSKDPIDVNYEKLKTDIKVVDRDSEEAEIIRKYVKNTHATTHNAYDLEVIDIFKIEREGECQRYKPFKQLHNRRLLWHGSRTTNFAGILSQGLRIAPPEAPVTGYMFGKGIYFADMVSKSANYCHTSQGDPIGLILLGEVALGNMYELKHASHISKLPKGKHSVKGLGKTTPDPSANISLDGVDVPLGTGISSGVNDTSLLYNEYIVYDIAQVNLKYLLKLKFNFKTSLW
Description: C.1. In Vitro Scintillation Proximity Assay (SPA) for PARP-1 Inhibitory Activity
Compounds of the present invention were tested in an in vitro assay based on SPA technology (proprietary to GE healthcare).
In principle, the assay relies upon the well established SPA technology for the detection of poly(ADP-ribosyl)ation of biotinylated target proteins, i.e histones. This ribosylation is induced using nicked DNA activated PARP-1 enzyme and [^3H]-nicotinamide adenine dinucleotide ([^3H]-NAD^+) as ADP-ribosyl donor.
Histones (type II-A, supplier: Sigma) were biotinylated using the biotinylation kit of Amersham and stored aliquoted at −20° C. A stock solution of 100 mg/ml SPA poly(vinyl toluene) (PVT) beads (supplier: Amersham) was made in PBS. A stock solution of 61.6 nM [^3H]-NAD^+ was made by adding [^3H]-NAD^+ (0.1 mCi/ml, supplier: Perkin Elmer) to incubation buffer (50 mM Tris/HCl, pH 8; 0.2 mM DTT; 4 mM MgCl2). A solution of 4 mM NAD^+ (supplier: Sigma) was made. Human PARP-1 enzyme was obtained from Trevigen. Biotinylated histones and PVT-SPA beads were mixed and pre-incubated for 30 min. at room temperature. PARP-1 enzyme (concentration was lot dependent) was mixed with the nicked DNA and the mixture was pre-incubated for 30 min. at 4° C. Equal parts of this histones/PVT-SPA beads solution and PARP-1 enzyme/DNA solution were mixed and 75 μl of this mixture together with 1 μl of compound in DMSO and 25 μl of [^3H]-NAD^+ was added per well into a 96-well microtiterplate. The final concentrations in the incubation mixture were 2 μg/ml for the biotinylated histones, 2 mg/ml for the PVT-SPA beads, 0.25 μg/ml for the nicked DNA and between 0.1-0.2 μg/ml for the PARP-1 enzyme. After incubation of the mixture for 20 min. at room temperature, the reaction was terminated by adding 100 μl of 4 mM NAD^+ in water (final concentration 2 mM) and plates were mixed. The beads were sedimented by centrifugation (10 min, 800 rpm). and plates transferred to a TopCountNXT™ (Packard) for scintillation counting, values were expressed as counts per minute (cpm). For each experiment, controls (containing PARP-1 enzyme and DMSO without compound), a blank incubation (containing DMSO but no PARP-1 enzyme, no DNA or compound) and samples (containing PARP-1 enzyme, DNA and compound dissolved in DMSO) were run in parallel. All compounds tested were dissolved and eventually further diluted in DMSO. A dose-response curve was made wherein the compounds were tested at concentrations between 10^−5M and 3×10^−9M. In each test, the blank value was subtracted from both the control and the sample values. The control sample represented maximal PARP-1 enzyme activity. For each sample, the amount of cpm was expressed as a percentage of the mean cpm value of the controls. When appropriate, IC50-values (concentration of the drug, needed to reduce the PARP-1 enzyme activity to 50% of the control) were computed using linear interpolation between the experimental points just above and below the 50% level. Herein the effects of test compounds are expressed as pIC50 (the negative log value of the IC50-value). As a reference compound, 4-amino-1,8-naphthalimide was included to validate the SPA assay.

TANK-2 enzyme = biological target: T2, TANK-2 enzyme (Homo sapiens, UniProt Q9H2K2); experiment: In vitro scintillation proximity assay (SPA) for TANK-2 inhibitory activity; assay type: biochemical; settings: auto-poly(ADP-ribosyl)ation, Ni flash plates; 96-well results if available, otherwise 384-well; tested between 10^-5 M and 3x10^-8 M; read-out: in vitro SPA assay TANK-2 pIC50 (converted)
T2 construct: made in house
T2 sequence (Q9H2K2 1-1166): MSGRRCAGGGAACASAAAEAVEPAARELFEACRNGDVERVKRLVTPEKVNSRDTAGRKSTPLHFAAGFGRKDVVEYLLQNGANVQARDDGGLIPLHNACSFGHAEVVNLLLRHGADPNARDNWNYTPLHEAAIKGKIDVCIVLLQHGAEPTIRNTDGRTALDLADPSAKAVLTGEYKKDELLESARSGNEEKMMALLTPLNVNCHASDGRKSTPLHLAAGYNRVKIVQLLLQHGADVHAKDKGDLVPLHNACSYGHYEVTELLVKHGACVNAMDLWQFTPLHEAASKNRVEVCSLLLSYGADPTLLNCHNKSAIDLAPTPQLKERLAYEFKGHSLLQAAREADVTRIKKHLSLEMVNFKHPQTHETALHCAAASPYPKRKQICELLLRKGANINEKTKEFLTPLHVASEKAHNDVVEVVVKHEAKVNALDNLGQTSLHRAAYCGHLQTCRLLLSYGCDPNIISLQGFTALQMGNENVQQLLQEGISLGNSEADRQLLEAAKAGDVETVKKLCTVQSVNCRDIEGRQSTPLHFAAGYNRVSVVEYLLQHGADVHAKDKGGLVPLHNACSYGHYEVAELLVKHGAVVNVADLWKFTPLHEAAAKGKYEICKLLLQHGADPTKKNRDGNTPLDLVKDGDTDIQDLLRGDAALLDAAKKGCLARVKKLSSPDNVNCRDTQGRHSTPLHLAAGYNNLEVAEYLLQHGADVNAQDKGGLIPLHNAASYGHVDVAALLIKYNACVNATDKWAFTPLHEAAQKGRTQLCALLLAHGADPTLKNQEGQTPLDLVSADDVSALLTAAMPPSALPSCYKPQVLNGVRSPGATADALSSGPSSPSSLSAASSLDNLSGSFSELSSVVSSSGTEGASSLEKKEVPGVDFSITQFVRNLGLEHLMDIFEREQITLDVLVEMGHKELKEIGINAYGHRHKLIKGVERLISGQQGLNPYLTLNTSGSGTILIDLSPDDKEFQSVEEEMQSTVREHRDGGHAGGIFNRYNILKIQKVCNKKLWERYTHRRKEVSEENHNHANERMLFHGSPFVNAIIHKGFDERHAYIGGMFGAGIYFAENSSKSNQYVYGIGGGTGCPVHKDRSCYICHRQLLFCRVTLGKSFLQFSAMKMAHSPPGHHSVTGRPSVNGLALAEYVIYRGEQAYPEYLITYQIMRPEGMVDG
Description: C.2. In Vitro Scintillation Proximity Assay (SPA) for TANK-2 Inhibitory Activity
Compounds of the present invention were tested in an in vitro assay based on SPA technology with Ni Flash plates (96 or 384 well).
In principle, the assay relies upon SPA technology for the detection of auto-poly(ADP-ribosyl)ation of TANK-2 protein using [^3H]-nicotinamide adenine dinucleotide ([^3H]-NAD^+) as ADP-ribosyl donor.
A stock solution of 100 nM [^3H]-NAD^+/NAD (0.1 mCi/ml, supplier: Perkin Elmer) and 0.25 mM NAD (Sigma) was made in assay buffer (60 mM Tris/HCl, pH 7.4; 0.9 mM DTT; 6 mM MgCl2). The TANK-2 enzyme was produced as described in EP1238063. 60 μl of assay buffer, together with 1 μl of compound in DMSO, 20 μl of [^3H]-NAD^+/NAD and 20 μl of TANK-2 enzyme (final concentration 8 μg/ml) was added per well into a 96-well Ni-coated flash plate (Perkin Elmer). After incubation of the mixture for 120 min. at room temperature, the reaction was terminated by adding 60 μl of stopsolution (42.6 mg NAD in 6 ml H2O). The plates were covered with a plate sealer and placed in a TopCountNX™ (Packard) for scintillation counting. Values were expressed as counts per minute (cpm). For each experiment, controls (containing TANK-2 enzyme and DMSO without compound), a blank incubation (containing DMSO but no TANK-2 enzyme or compound) and samples (containing TANK-2 enzyme and compound dissolved in DMSO) were run in parallel. All compounds tested were dissolved and eventually further diluted in DMSO. […] In each test, the blank value was subtracted from both the control and the sample values. The control sample represented maximal TANK-2 enzyme activity. For each sample, the amount of cpm was expressed as a percentage of the mean cpm value of the controls. When appropriate, IC50-values (concentration of the drug, needed to reduce the TANK-2 enzyme activity to 50% of the control) were computed using linear interpolation between the experimental points just above and below the 50% level. Herein the effects of test compounds are expressed as pIC50 (the negative log value of the IC50-value). As reference compounds, 3-aminobenzamide and 4-amino-1,8-naphtalimide were included to validate the SPA assay. Herein the assay was described using 96-well plates. In the assay using 384-well plates the same final concentrations were used and volumes were adapted.

SMILES	IC50 (Human PARP-1 enzyme) [nM]	melting point [°C]	IC50 (TANK-2 enzyme) [nM]
CCc1cc2ccc(CN3CCC(c4ccccc4)CC3)cc2[nH]c1=O [Compound 3]	1.24	184	5450
Cc1cc2ccc(C(C)N3CCCC3)cc2[nH]c1=O (stereo not shown) [Compound 68]	0.759	133	2140
CCc1cc2ccc(CN3CCN(c4cccc(Cl)c4)CC3)cc2[nH]c1=O [Compound 45]	16.3		1710
CCc1cc2ccc(CNCc3ccccc3)cc2[nH]c1=O [Compound 49]	42.9		155
Cc1cc2ccc(C(C)N3CCN(c4ncccc4C(F)(F)F)CC3)cc2[nH]c1=O (stereo not shown) [Compound 56]	225		1920
CCc1cc2ccc(CN3CCN(c4ncccn4)CC3)cc2[nH]c1=O [Compound 30]	14.3		188
CCc1cc2ccc(CN3CCN(CCc4ccccc4)CC3)cc2[nH]c1=O [Compound 44]	6.9		2190
CCc1cc2ccc(CN3CCc4ccccc4C3)cc2[nH]c1=O [Compound 29]	20		424
CCc1cc2ccc(CN3CCN(c4ccncc4)CC3)cc2[nH]c1=O [Compound 35]	1.14		398
Cc1cc2ccc(C(C)N3CC=C(c4ccccc4)CC3)cc2[nH]c1=O (stereo not shown) [Compound 51]	1.49		1280
CCc1cc2ccc(CN3C[C@@H]4C[C@H]3CN4c3ccc(Cl)cc3)cc2[nH]c1=O [Compound 28]	34.8		650
CCc1cc2ccc(C(O)CN3CCN(c4ncccn4)CC3)cc2[nH]c1=O (stereo not shown) [Compound 32]	89.5		92.3
Cc1cc2ccc(C(=O)N3CCN(c4ccccc4Cl)CC3)cc2[nH]c1=O [Compound 60]	116		> 10000
CCc1cc2ccc(CN3CCN(c4ccc(C)c(C)c4)CC3)cc2[nH]c1=O [Compound 40]	25.6		649
CCc1cc2ccc(CN3CCN(c4cnccn4)CC3)cc2[nH]c1=O [Compound 36]	2.55		222
Cc1cc2ccc(C(C(C)C)N3CCN(c4ccc(C#N)cn4)CC3)cc2[nH]c1=O (stereo not shown) [Compound 66]	195		1230
CCc1cc2ccc(CN3CCN(c4ccc(Cl)c(Cl)c4)CC3)cc2[nH]c1=O [Compound 43]	2.58		1720
Cc1cc2ccc(C(C3CCCCC3)N3CCN(c4ccccc4C#N)CC3)cc2[nH]c1=O (stereo not shown) [Compound 67]	708		> 10000
CCc1cc2ccc(CN3CC=C(c4ccccc4)CC3)cc2[nH]c1=O [Compound 21]	1.03		986
CCc1cc2ccc(CCCN3CCN(c4ccc(C#N)cn4)CC3)cc2[nH]c1=O (as salt: HCl) [Compound 8]		174	
CCc1cc2ccc(CN3CCCC3)cc2[nH]c1=O [Compound 61]	5.36		4220
CCc1cc2ccc(CNCCCc3ccccc3)cc2[nH]c1=O [Compound 46]	9.48		5380
CCc1cc2ccc(CCCN3CCN(c4ccc(C#N)cn4)CC3)cc2[nH]c1=O [Compound 8]	170		63.2
COCCNC1CCN(C(C)c2ccc3cc(C)c(=O)[nH]c3c2)CC1 (stereo not shown) [Compound 55]	92		> 10000
CCc1cc2ccc(CN3CCC(Cc4ccccc4)CC3)cc2[nH]c1=O [Compound 31]	403		3120
CCc1cc2ccc(CN3CCN(c4n[nH]c5ccccc45)CC3)cc2[nH]c1=O [Compound 37]	5.68		232
CCc1cc2ccc(CN3CCN(CCOC)CC3)cc2[nH]c1=O [Compound 27]	65		3960
Cc1cc2ccc(CN3CCN(c4ccccn4)CC3)cc2[nH]c1=O [Compound 57]	1.48		4220
CCc1cc2ccc(CNCCN3CCN(c4ncccn4)CC3)cc2[nH]c1=O [Compound 24]	80.4		1000
Cc1cc2ccc(C(C)N3CCC(c4ccc(Cl)cc4)CC3)cc2[nH]c1=O (stereo not shown) [Compound 50]	1.5		2800
